Data on 5 compounds can be found in EP0060994A1, “Bis-hydroxyethylmercapto-1,10-decane derivative, process for its preparation, and pharmaceutical compositions containing it” (LABORATORI PROPHIN S.p.A., priority 1981, dated 1982).

Where two headings read alike, the source gives them in different places.

In data set [1] the test system is aus dem Epydimalgewebe der Ratten isolierten und in vitro inkubierten Fettzellen. Briefly: tissue or blood. As to conditions: 0.5 h. An excerpt:
Die in der untenanliegenden Tabelle hervorgebrachten Resultate wurden auf, aus dem Epydimalgewebe der Ratten isolierten und in vitro inkubierten Fettzellen durchgeführt, wobei die Befreiung von Glyzerol als Parameter der Lypolysis in Anbetracht gezogen wurde.
Die spontane Lypolysis in Abwesenheit von Arzneimitteln wurde als Vergleichstermin in Anbetracht gezogen.
Die Hemmungsprozentualen beziehen sich auf die spontane (erste Spalte), von Epynephrin induzierte (zweite Spalte) und von Theophyllin induzierte (dritte Spalte) Lypolysis.

The subject of the next data set is Maus (Swissstamm). As to conditions: mouse, oral, same experimental conditions; literature value; cited from earlier work.
In the next data set the test system is Lypolysis. As to conditions: in the presence of zyklischem AMP-dibutyrat; cited from earlier work.
[2] abbreviates: read-out: Lypolysis +Epynephrin 10^-6M.
Where [3] appears, read: read-out: Lypolysis +Theophyllin 3x10^-4M.

`CNCC(O)c1ccc(O)c(O)c1` (stereo not drawn) [Epynephrin]: in data set [1] (read-out: von Epynephrin in Vergleich mit der spontanen Lypolysis induzierte Zunahme), the fold induction at 1 µM turned out to be 12.8.
Consider `OCc1cccnc1` [N, Nicotinol], for which the results for the inhibition at 2000 µM in data set [1] (setting [2]), in data set [1] (setting [3]) and in data set [1] (read-out: Lypolysis Spontane) were 38%, 60% and 89%, respectively. The values for the inhibition at 200 µM in data set [1] (setting [3]) and in data set [1] (read-out: Lypolysis Spontane) were 37% and 60%, respectively.
Regarding `OCCSCCCCCCCCCCSCCO` [T, Thiadenol], the inhibition at 1000 µM in data set [1] (setting [2]) is 33%. Moreover, in data set [1] (setting [3]), the inhibition at 100 µM came to 34% and the inhibition at 1000 µM came to 47%. Moreover, the LD50-Wert in the data set on Maus (Swissstamm) is 10000 mg/kg. Moreover, in the data set with Lypolysis, the “in vitro lypolysishemmende Wirkung” value is reported as “lypolysishemmende Wirkung”.
Consider `O=C(OCCSCCCCCCCCCCSCCOC(=O)OCc1cccnc1)OCc1cccnc1` [TN, Gemischtes Doppelcarbonat des Bis-hydroxyethylmercapto-1,10-decans und 3-Pyridylmethanols], for which the inhibition at 100 µM in data set [1] (setting [2]) is 34%; in data set [1] (setting [3]), 30%; in data set [1] (read-out: Lypolysis Spontane), 70%. Further, the inhibition at 1000 µM in data set [1] (setting [2]) worked out at 58%; in data set [1] (setting [3]), 69%; in data set [1] (read-out: Lypolysis Spontane), 84%.
For the compound `Cn1c(=O)c2[nH]cnc2n(C)c1=O` [Theophyllin], in data set [1] (read-out: von Theophyllin in Vergleich mit der spontanen Lypolysis induzierte Zunahme), the fold induction at 300 µM stood at 7.6.
